Like-named read-outs stand apart in the source and are kept apart here.
Tests used:
[1] = design: method as in Olsen et al. 2009; settings: occupationally exposed workers; ref Olsen et al. 2009; cited from earlier work
[2] = Individual serum elimination rate and half-life (linear regression per employee); settings: for Elimination rate / HL (half-life) / half-life: individual estimate; for half-life: human, serum, oral, HL (half-life);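 on HL (half-life): half-life in years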
Protocol: Serum PFAS concentrations were log-transformed. Time was calculated as the elapsed days between supply of clean bottled water and […] blood sampling. We assumed one compartment, first-order elimination kinetics. In this kinetic model, the body is considered as one homogeneous volume in which mixing is instantaneous and from which PFAS could be absorbed, transferred, and eliminated according to the rate of elimination that is proportional to the concentration of PFAS in the body. Two methods were used to estimate serum elimination rate constant (k) and half-life for each PFAS:
Method 2: For estimation of individual k, linear regression was used to derive the slope ( β ) of the logarithm of serum concentrations vs. time for each employee. The negative value of the slope ( −β ) for each individual was equivalent to the individual k, and individual serum elimination half-life was calculated as ln2/k for each PFAS. If β was positive (i.e., PFAS concentrations tended to increase over the five samplings), the half-life was not calculated.

[3] = design: method as in Zhang et al. 2015; settings: ref Zhang et al. 2015, cited from earlier work

O=S(=O)(O)C(F)(F)C(F)(F)C(F)(F)C(F)(F)F [PFBS, perfluorobutane sulfonic acid]
Serum level, average [1]: 397 ng/mL | Elimination rate ([2]; subject 1, 5 samples): 3.2 yearly | HL (half-life) ([2]; subject 1, 5 samples): 0.2 year | Elimination rate ([2]; subject 2, 5 samples): 4.0 yearly | HL (half-life) ([2]; subject 2, 5 samples): 0.2 year | Elimination rate ([2]; subject 3, 5 samples): 5.1 yearly | HL (half-life) ([2]; subject 3, 5 samples): 0.1 year | Elimination rate ([2]; subject 4, 5 samples): 3.1 yearly | HL (half-life) ([2]; subject 4, 5 samples): 0.2 year | Elimination rate ([2]; subject 5, 5 samples): 3.0 yearly | HL (half-life) ([2]; subject 5, 5 samples): 0.2 year | Elimination rate ([2]; subject 6, 4 samples): 2.9 yearly | HL (half-life) ([2]; subject 6, 4 samples): 0.2 year | Elimination rate ([2]; subject 7, 5 samples): 6.2 yearly | HL (half-life) ([2]; subject 7, 5 samples): 0.1 year | Elimination rate ([2]; subject 8, 5 samples): 4.4 yearly | HL (half-life) ([2]; subject 8, 5 samples): 0.2 year | Elimination rate ([2]; subject 9, 5 samples): 11.7 yearly | HL (half-life) ([2]; subject 9, 5 samples): 0.1 year | Elimination rate ([2]; subject 10, 5 samples): 3.8 yearly | HL (half-life) ([2]; subject 10, 5 samples): 0.2 year | Elimination rate ([2]; subject 11, 5 samples): 7.1 yearly | HL (half-life) ([2]; subject 11, 5 samples): 0.1 year | Elimination rate ([2]; subject 12, 5 samples): 5.4 yearly | HL (half-life) ([2]; subject 12, 5 samples): 0.1 year | Elimination rate ([2]; subject 13, 5 samples): 6.2 yearly | HL (half-life) ([2]; subject 13, 5 samples): 0.1 year | Elimination rate ([2]; subject 14, 4 samples): 10.7 yearly | HL (half-life) ([2]; subject 14, 4 samples): 0.1 year | Elimination rate ([2]; subject 15, 5 samples): 5.7 yearly | HL (half-life) ([2]; subject 15, 5 samples): 0.1 year | Elimination rate ([2]; subject 16, 5 samples): 3.6 yearly | HL (half-life) ([2]; subject 16, 5 samples): 0.2 year | Elimination rate ([2]; subject 17, 5 samples): 10.4 yearly | HL (half-life) ([2]; subject 17, 5 samples): 0.1 year

O=C(O)C(F)(F)C(F)(F)C(F)(F)C(F)(F)C(F)(F)C(F)(F)C(F)(F)F [PFOA, perfluorooctanoic acid]
half-life ([2]; subject 1, 5 samples): 877 days | half-life ([2]; subject 2, 5 samples): 1060 days | half-life ([2]; subject 3, 5 samples): 438 days | half-life ([2]; subject 4, 5 samples): 840 days | half-life ([2]; subject 5, 5 samples): 804 days | half-life ([2]; subject 6, 4 samples): 1060 days | half-life ([2]; subject 7, 5 samples): 584 days | half-life ([2]; subject 9, 5 samples): 694 days | half-life ([2]; subject 10, 5 samples): 767 days | half-life ([2]; subject 11, 5 samples): 548 days | half-life ([2]; subject 12, 5 samples): 365 days | half-life ([2]; subject 13, 5 samples): 584 days | half-life ([2]; subject 14, 4 samples): 584 days | half-life ([2]; subject 15, 5 samples): 402 days | half-life ([2]; subject 16, 5 samples): 986 days | half-life ([2]; subject 17, 5 samples): 438 days | Elimination rate ([2]; subject 1, 5 samples): 0.3 yearly | Elimination rate ([2]; subject 2, 5 samples): 0.2 yearly | Elimination rate ([2]; subject 3, 5 samples): 0.6 yearly | Elimination rate ([2]; subject 4, 5 samples): 0.3 yearly | Elimination rate ([2]; subject 5, 5 samples): 0.3 yearly | Elimination rate ([2]; subject 6, 4 samples): 0.2 yearly | Elimination rate ([2]; subject 7, 5 samples): 0.4 yearly | Elimination rate ([2]; subject 8, 5 samples): 0.007 yearly | Elimination rate ([2]; subject 9, 5 samples): 0.4 yearly | Elimination rate ([2]; subject 10, 5 samples): 0.3 yearly | Elimination rate ([2]; subject 11, 5 samples): 0.5 yearly | Elimination rate ([2]; subject 12, 5 samples): 0.7 yearly | Elimination rate ([2]; subject 13, 5 samples): 0.4 yearly | Elimination rate ([2]; subject 14, 4 samples): 0.4 yearly | Elimination rate ([2]; subject 15, 5 samples): 0.6 yearly | Elimination rate ([2]; subject 16, 5 samples): 0.3 yearly | Elimination rate ([2]; subject 17, 5 samples): 0.6 yearly | Urine/serum ratio ([3]; nonpregnant women): 0.0028 | Urine/serum ratio ([3]; pregnant women): 0.0011

O=S(=O)(O)C(F)(F)C(F)(F)C(F)(F)C(F)(F)C(F)(F)C(F)(F)C(F)(F)F [PFHpS, perfluoroheptane sulfonic acid]
Elimination rate ([2]; subject 1, 5 samples): 0.5 yearly | HL (half-life) ([2]; subject 1, 5 samples): 1.3 year | Elimination rate ([2]; subject 2, 5 samples): 0.2 yearly | HL (half-life) ([2]; subject 2, 5 samples): 3.4 year | Elimination rate ([2]; subject 3, 5 samples): 0.2 yearly | HL (half-life) ([2]; subject 3, 5 samples): 3.0 year | Elimination rate ([2]; subject 4, 5 samples): 0.001 yearly | Elimination rate ([2]; subject 5, 5 samples): −0.3 yearly | Elimination rate ([2]; subject 6, 4 samples): 0.1 yearly | HL (half-life) ([2]; subject 6, 4 samples): 6.1 year | Elimination rate ([2]; subject 7, 5 samples): −0.04 yearly | Elimination rate ([2]; subject 8, 5 samples): −0.6 yearly | Elimination rate ([2]; subject 9, 5 samples): 0.05 yearly | HL (half-life) ([2]; subject 9, 5 samples): 15 year | Elimination rate ([2]; subject 10, 5 samples): 0.4 yearly | HL (half-life) ([2]; subject 10, 5 samples): 1.8 year | Elimination rate ([2]; subject 11, 5 samples): 1.7 yearly | HL (half-life) ([2]; subject 11, 5 samples): 0.4 year | Elimination rate ([2]; subject 12, 5 samples): 0.6 yearly | HL (half-life) ([2]; subject 12, 5 samples): 1.1 year | Elimination rate ([2]; subject 13, 5 samples): −0.2 yearly | Elimination rate ([2]; subject 14, 4 samples): 1.0 yearly | HL (half-life) ([2]; subject 14, 4 samples): 0.7 year | Elimination rate ([2]; subject 15, 5 samples): 1.6 yearly | HL (half-life) ([2]; subject 15, 5 samples): 0.4 year | Elimination rate ([2]; subject 16, 5 samples): 0.1 yearly | HL (half-life) ([2]; subject 16, 5 samples): 12 year | Elimination rate ([2]; subject 17, 5 samples): 1.7 yearly | HL (half-life) ([2]; subject 17, 5 samples): 0.4 year

O=C(O)C(F)(F)C(F)(F)C(F)(F)C(F)(F)C(F)(F)C(F)(F)F [PFHpA, perfluoroheptanoic acid]
half-life ([2]; subject 1, 5 samples): 110 days | half-life ([2]; subject 2, 5 samples): 73 days | half-life ([2]; subject 3, 5 samples): 146 days | half-life ([2]; subject 4, 5 samples): 73 days | half-life ([2]; subject 5, 5 samples): 183 days | half-life ([2]; subject 6, 4 samples): 73 days | half-life ([2]; subject 7, 5 samples): 36.5 days | half-life ([2]; subject 8, 5 samples): 36.5 days | half-life ([2]; subject 9, 5 samples): 36.5 days | half-life ([2]; subject 10, 5 samples): 110 days | half-life ([2]; subject 11, 5 samples): 110 days | half-life ([2]; subject 12, 5 samples): 36.5 days | half-life ([2]; subject 13, 5 samples): 36.5 days | half-life ([2]; subject 14, 4 samples): 36.5 days | half-life ([2]; subject 15, 5 samples): 73 days | half-life ([2]; subject 16, 5 samples): 256 days | half-life ([2]; subject 17, 5 samples): 36.5 days | Elimination rate ([2]; subject 1, 5 samples): 2.1 yearly | Elimination rate ([2]; subject 2, 5 samples): 3.7 yearly | Elimination rate ([2]; subject 3, 5 samples): 1.7 yearly | Elimination rate ([2]; subject 4, 5 samples): 3.2 yearly | Elimination rate ([2]; subject 5, 5 samples): 1.3 yearly | Elimination rate ([2]; subject 6, 4 samples): 4.1 yearly | Elimination rate ([2]; subject 7, 5 samples): 4.6 yearly | Elimination rate ([2]; subject 8, 5 samples): 5.4 yearly | Elimination rate ([2]; subject 9, 5 samples): 7.8 yearly | Elimination rate ([2]; subject 10, 5 samples): 2.2 yearly | Elimination rate ([2]; subject 11, 5 samples): 2.6 yearly | Elimination rate ([2]; subject 12, 5 samples): 6.7 yearly | Elimination rate ([2]; subject 13, 5 samples): 5.4 yearly | Elimination rate ([2]; subject 14, 4 samples): 6.6 yearly | Elimination rate ([2]; subject 15, 5 samples): 3.9 yearly | Elimination rate ([2]; subject 16, 5 samples): 0.9 yearly | Elimination rate ([2]; subject 17, 5 samples): 5.2 yearly

O=C(O)C(F)(F)C(F)(F)C(F)(F)C(F)(F)C(F)(F)F [PFHxA, perfluorohexanoic acid]
Individuals without decrement in serum concentration (no individual estimated half-life) ([2]; 5-month follow-up, 17 employees): 53% | Elimination rate ([2]; subject 1, 5 samples): 0.2 yearly | HL (half-life) ([2]; subject 1, 5 samples): 4.1 year | Elimination rate ([2]; subject 2, 5 samples): −0.1 yearly | Elimination rate ([2]; subject 3, 5 samples): 1.6 yearly | HL (half-life) ([2]; subject 3, 5 samples): 0.4 year | Elimination rate ([2]; subject 4, 5 samples): −0.6 yearly | Elimination rate ([2]; subject 5, 5 samples): −1.7 yearly | Elimination rate ([2]; subject 6, 4 samples): −1.6 yearly | Elimination rate ([2]; subject 7, 5 samples): 1.5 yearly | HL (half-life) ([2]; subject 7, 5 samples): 0.5 year | Elimination rate ([2]; subject 8, 5 samples): −0.7 yearly | Elimination rate ([2]; subject 9, 5 samples): −0.2 yearly | Elimination rate ([2]; subject 10, 5 samples): 0.4 yearly | HL (half-life) ([2]; subject 10, 5 samples): 1.9 year | Elimination rate ([2]; subject 11, 5 samples): 2.8 yearly | HL (half-life) ([2]; subject 11, 5 samples): 0.2 year | Elimination rate ([2]; subject 12, 5 samples): −0.3 yearly | Elimination rate ([2]; subject 13, 5 samples): −0.7 yearly | Elimination rate ([2]; subject 14, 4 samples): −0.5 yearly | Elimination rate ([2]; subject 15, 5 samples): 2.7 yearly | HL (half-life) ([2]; subject 15, 5 samples): 0.3 year | Elimination rate ([2]; subject 16, 5 samples): 1.1 yearly | HL (half-life) ([2]; subject 16, 5 samples): 0.6 year | Elimination rate ([2]; subject 17, 5 samples): 2.5 yearly | HL (half-life) ([2]; subject 17, 5 samples): 0.3 year
